Columns and labels:
[1] = tested on: human adrenal gland section expressing aldosterone-producing adenoma; test: In vitro autoradiography using human adrenal adenoma; format: binding
Outline: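 Autoradiography readout: PSL in equal-sized ROIs over adenoma (B2) and normal adrenal cortex (B1), expressed as B2/B1 and decay-corrected using half-life, applied activity and plate contact time. Tissue was surgically excised human adrenal, frozen and cut at 7 μm, incubated 10 min with 5-33 kBq/mL tracer in BSA-containing PBS, then imaged after 16-20 h exposure.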

[2] = Plasma stability evaluation (TLC analysis); format: in vitro ADME; conditions: 37° C., 60 minutes; for Radiochemical purity after incubation in human plasma: TLC analysis
Outline: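 TLC analysis, using each compound's synthesis conditions, judged stability after methanol was added and samples were centrifuged to remove protein. Beforehand, each tracer had spent 60 minutes at 37° C in pooled heparinized normal human plasma.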

[3] = In vivo kinetics experiment (radioactivity distribution); set-up: species or system Wistar male rat
Outline: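 Tissue radioactivity (% ID/g) and adrenal-to-blood, liver, kidney, small intestine, muscle and fat ratios determined at 10, 30 and 60 min post-dose. Tracers (approximately 1 to 3.7 MBq, saline with 1 w/v % ascorbic acid) injected i.v. into caudal vein of anesthetized 9-week male Wistar rats; organs excised, weighed, counted.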

[4] = 10 min after administration, rat i.v., mean ± SD
[5] = 30 min after administration, rat i.v., mean ± SD
[6] = 60 min after administration, rat i.v., mean ± SD
[7] = rat, caudal vein, 10 min after administration
[8] = rat, caudal vein, 30 min after administration
[9] = rat, caudal vein, 60 min after administration

COc1cc([123I])cc2c1nc(-c1cncc(Cn3ccnc3)c1)n2C1CC1 [[^123I] 609, 1-Cyclopropyl-2-[5-(imidazol-1-ylmethyl)pyridin-3-yl]-6-[^123I]iodo-4-methoxybenzimidazole]
B2/B1 accumulation ratio ([1]; section of FIG. 17(b)): 0.85 | B2 (PSL value, aldosterone-producing adenoma) ([1]; section of FIG. 17(b), site 71b): 3805 | B1 (PSL value, normal adrenal cortex) ([1]; section of FIG. 17(b), site 72b): 4479 | Radiochemical purity after incubation in human plasma [2]: 86% | Adrenal gland/blood ratio of radioactivity accumulation [3, 4]: 70.18 ± 9.10 | Adrenal gland/fat ratio of radioactivity accumulation [3, 4]: 92.34 ± 17.88 | Adrenal gland/kidney ratio of radioactivity accumulation [3, 4]: 7.38 ± 1.46 | Adrenal gland/liver ratio of radioactivity accumulation [3, 4]: 1.55 ± 0.09 | Adrenal gland/muscle ratio of radioactivity accumulation [3, 4]: 46.03 ± 17.74 | Adrenal gland/small intestine ratio of radioactivity accumulation [3, 4]: 5.04 ± 0.97 | Radioactivity distribution Adrenal gland [3, 4]: 8.54 ± 1.17 % ID/g | Radioactivity distribution Bladder (including urine) [3, 4]: 0.17 ± 0.08 % ID/g | Radioactivity distribution Blood [3, 4]: 0.12 ± 0.00 % ID/g | Radioactivity distribution Fat [3, 4]: 0.09 ± 0.01 % ID/g | Radioactivity distribution Femur [3, 4]: 0.37 ± 0.06 % ID/g | Radioactivity distribution Heart [3, 4]: 0.36 ± 0.01 % ID/g | Radioactivity distribution Kidney [3, 4]: 1.17 ± 0.08 % ID/g | Radioactivity distribution Large intestine [3, 4]: 0.16 ± 0.01 % ID/g | Radioactivity distribution Liver [3, 4]: 5.50 ± 0.46 % ID/g | Radioactivity distribution Lung [3, 4]: 0.51 ± 0.04 % ID/g | Radioactivity distribution Muscle (lower limbs) [3, 4]: 0.20 ± 0.06 % ID/g | Radioactivity distribution Remaining whole body [3, 4]: 0.20 ± 0.03 % ID/g | Radioactivity distribution Small intestine [3, 4]: 1.71 ± 0.18 % ID/g | Radioactivity distribution Spleen [3, 4]: 0.82 ± 0.05 % ID/g | Radioactivity distribution Stomach [3, 4]: 0.65 ± 0.25 % ID/g | Radioactivity distribution Testis [3, 4]: 0.05 ± 0.00 % ID/g | Radioactivity distribution Whole brain [3, 4]: 0.02 ± 0.00 % ID/g | Adrenal gland/blood ratio of radioactivity accumulation [3, 5]: 78.36 ± 23.36 | Adrenal gland/fat ratio of radioactivity accumulation [3, 5]: 110.76 ± 35.85 | Adrenal gland/kidney ratio of radioactivity accumulation [3, 5]: 11.13 ± 2.62 | Adrenal gland/liver ratio of radioactivity accumulation [3, 5]: 2.54 ± 0.51 | Adrenal gland/muscle ratio of radioactivity accumulation [3, 5]: 66.27 ± 15.78 | Adrenal gland/small intestine ratio of radioactivity accumulation [3, 5]: 2.54 ± 0.80 | Radioactivity distribution Adrenal gland [3, 5]: 11.21 ± 3.24 % ID/g | Radioactivity distribution Bladder (including urine) [3, 5]: 0.80 ± 0.10 % ID/g | Radioactivity distribution Blood [3, 5]: 0.14 ± 0.01 % ID/g | Radioactivity distribution Fat [3, 5]: 0.10 ± 0.02 % ID/g | Radioactivity distribution Femur [3, 5]: 0.29 ± 0.04 % ID/g | Radioactivity distribution Heart [3, 5]: 0.36 ± 0.02 % ID/g | Radioactivity distribution Kidney [3, 5]: 1.00 ± 0.07 % ID/g | Radioactivity distribution Large intestine [3, 5]: 0.18 ± 0.03 % ID/g | Radioactivity distribution Liver [3, 5]: 4.36 ± 0.46 % ID/g | Radioactivity distribution Lung [3, 5]: 0.42 ± 0.05 % ID/g | Radioactivity distribution Muscle (lower limbs) [3, 5]: 0.17 ± 0.03 % ID/g | Radioactivity distribution Remaining whole body [3, 5]: 0.14 ± 0.01 % ID/g | Radioactivity distribution Small intestine [3, 5]: 4.44 ± 0.63 % ID/g | Radioactivity distribution Spleen [3, 5]: 0.43 ± 0.03 % ID/g | Radioactivity distribution Stomach [3, 5]: 1.27 ± 0.17 % ID/g | Radioactivity distribution Testis [3, 5]: 0.07 ± 0.01 % ID/g | Radioactivity distribution Whole brain [3, 5]: 0.02 ± 0.00 % ID/g | Adrenal gland/blood ratio of radioactivity accumulation [3, 6]: 87.48 ± 12.64 | Adrenal gland/fat ratio of radioactivity accumulation [3, 6]: 147.76 ± 20.75 | Adrenal gland/kidney ratio of radioactivity accumulation [3, 6]: 13.00 ± 2.52 | Adrenal gland/liver ratio of radioactivity accumulation [3, 6]: 3.99 ± 0.57 | Adrenal gland/muscle ratio of radioactivity accumulation [3, 6]: 103.59 ± 13.53 | Adrenal gland/small intestine ratio of radioactivity accumulation [3, 6]: 1.53 ± 0.14 | Radioactivity distribution Adrenal gland [3, 6]: 11.04 ± 1.72 % ID/g | Radioactivity distribution Bladder (including urine) [3, 6]: 2.03 ± 0.70 % ID/g | Radioactivity distribution Blood [3, 6]: 0.13 ± 0.00 % ID/g | Radioactivity distribution Fat [3, 6]: 0.07 ± 0.01 % ID/g | Radioactivity distribution Femur [3, 6]: 0.33 ± 0.03 % ID/g | Radioactivity distribution Heart [3, 6]: 0.33 ± 0.02 % ID/g | Radioactivity distribution Kidney [3, 6]: 0.85 ± 0.03 % ID/g | Radioactivity distribution Large intestine [3, 6]: 0.63 ± 0.43 % ID/g | Radioactivity distribution Liver [3, 6]: 2.77 ± 0.15 % ID/g | Radioactivity distribution Lung [3, 6]: 0.38 ± 0.02 % ID/g | Radioactivity distribution Muscle (lower limbs) [3, 6]: 0.11 ± 0.00 % ID/g | Radioactivity distribution Remaining whole body [3, 6]: 0.10 ± 0.00 % ID/g | Radioactivity distribution Small intestine [3, 6]: 7.17 ± 0.45 % ID/g | Radioactivity distribution Spleen [3, 6]: 0.30 ± 0.01 % ID/g | Radioactivity distribution Stomach [3, 6]: 1.47 ± 0.33 % ID/g | Radioactivity distribution Testis [3, 6]: 0.07 ± 0.01 % ID/g | Radioactivity distribution Whole brain [3, 6]: 0.01 ± 0.00 % ID/g

FCCn1c(-c2cncc(Cn3ccnc3)c2)nc2cc(F)c([123I])cc21 [[^123I] 400, 5-Fluoro-1-(2-fluoroethyl)-2-[5-(imidazol-1-ylmethyl)pyridin-3-yl]-6-[^123I]iodobenzimidazole]
accumulation of radioactivity in adrenal gland section (autoradiogram) ([1]; FIGS. 18 to 31): accumulation of radioactivity was selectively observed in a region in which aldosterone-producing adenoma had been pathologically observed | B2/B1 accumulation ratio ([1]; section of FIG. 17(a)): 2.89 | B2 (PSL value, aldosterone-producing adenoma) ([1]; section of FIG. 17(a), site 71a): 4611 | B1 (PSL value, normal adrenal cortex) ([1]; section of FIG. 17(a), site 72a): 1596 | stability in human plasma [2]: hardly metabolized and decomposed in the plasma | Radiochemical purity after incubation in human plasma [2]: 88% | accumulation of radioactivity in adrenal gland vs blood and peripheral tissues ([3]; rat, Tables 9 to 22): high accumulation of radioactivity in adrenal gland was observed, in comparison to in blood and peripheral tissues | Adrenal gland/blood ratio of radioactivity accumulation [3, 7]: 28.34 | Adrenal gland/fat ratio of radioactivity accumulation [3, 7]: 89.23 | Adrenal gland/kidney ratio of radioactivity accumulation [3, 7]: 5.85 | Adrenal gland/liver ratio of radioactivity accumulation [3, 7]: 3.02 | Adrenal gland/muscle ratio of radioactivity accumulation [3, 7]: 54.21 | Adrenal gland/small intestine ratio of radioactivity accumulation [3, 7]: 6.95 | Radioactivity distribution Adrenal gland [3, 7]: 9.09 % ID/g | Radioactivity distribution Bladder (including urine) [3, 7]: 0.32 % ID/g | Radioactivity distribution Blood [3, 7]: 0.32 % ID/g | Radioactivity distribution Fat [3, 7]: 0.10 % ID/g | Radioactivity distribution Heart [3, 7]: 0.63 % ID/g | Radioactivity distribution Kidney [3, 7]: 1.54 % ID/g | Radioactivity distribution Large intestine [3, 7]: 0.19 % ID/g | Radioactivity distribution Liver [3, 7]: 2.98 % ID/g | Radioactivity distribution Lung [3, 7]: 1.06 % ID/g | Radioactivity distribution Muscle (lower limbs) [3, 7]: 0.17 % ID/g | Radioactivity distribution Remaining whole body [3, 7]: 0.27 % ID/g | Radioactivity distribution Small intestine [3, 7]: 1.30 % ID/g | Radioactivity distribution Spleen [3, 7]: 5.26 % ID/g | Radioactivity distribution Stomach [3, 7]: 1.03 % ID/g | Radioactivity distribution Testis [3, 7]: 0.07 % ID/g | Radioactivity distribution Thyroid gland [3, 7]: 3.54 % ID/g | Radioactivity distribution Whole brain [3, 7]: 0.02 % ID/g | Adrenal gland/blood ratio of radioactivity accumulation [3, 8]: 40.26 | Adrenal gland/fat ratio of radioactivity accumulation [3, 8]: 147.73 | Adrenal gland/kidney ratio of radioactivity accumulation [3, 8]: 17.90 | Adrenal gland/liver ratio of radioactivity accumulation [3, 8]: 13.82 | Adrenal gland/muscle ratio of radioactivity accumulation [3, 8]: 110.91 | Adrenal gland/small intestine ratio of radioactivity accumulation [3, 8]: 9.24 | Radioactivity distribution Adrenal gland [3, 8]: 16.93 % ID/g | Radioactivity distribution Bladder (including urine) [3, 8]: 1.35 % ID/g | Radioactivity distribution Blood [3, 8]: 0.43 % ID/g | Radioactivity distribution Fat [3, 8]: 0.12 % ID/g | Radioactivity distribution Heart [3, 8]: 0.49 % ID/g | Radioactivity distribution Kidney [3, 8]: 0.95 % ID/g | Radioactivity distribution Large intestine [3, 8]: 0.19 % ID/g | Radioactivity distribution Liver [3, 8]: 1.24 % ID/g | Radioactivity distribution Lung [3, 8]: 0.76 % ID/g | Radioactivity distribution Muscle (lower limbs) [3, 8]: 0.15 % ID/g | Radioactivity distribution Remaining whole body [3, 8]: 0.31 % ID/g | Radioactivity distribution Small intestine [3, 8]: 1.83 % ID/g | Radioactivity distribution Spleen [3, 8]: 5.44 % ID/g | Radioactivity distribution Stomach [3, 8]: 2.24 % ID/g | Radioactivity distribution Testis [3, 8]: 0.12 % ID/g | Radioactivity distribution Thyroid gland [3, 8]: 9.97 % ID/g | Radioactivity distribution Whole brain [3, 8]: 0.02 % ID/g | Adrenal gland/blood ratio of radioactivity accumulation [3, 9]: 29.41 ± 3.13 | Adrenal gland/fat ratio of radioactivity accumulation [3, 9]: 105.17 ± 28.98 | Adrenal gland/kidney ratio of radioactivity accumulation [3, 9]: 18.87 ± 3.12 | Adrenal gland/liver ratio of radioactivity accumulation [3, 9]: 16.66 ± 3.13 | Adrenal gland/muscle ratio of radioactivity accumulation [3, 9]: 95.38 ± 22.07 | Adrenal gland/small intestine ratio of radioactivity accumulation [3, 9]: 6.64 ± 2.31 | Radioactivity distribution Adrenal gland [3, 9]: 11.65 ± 1.54 % ID/g | Radioactivity distribution Bladder (including urine) [3, 9]: 1.27 ± 0.07 % ID/g | Radioactivity distribution Blood [3, 9]: 0.40 ± 0.01 % ID/g | Radioactivity distribution Fat [3, 9]: 0.11 ± 0.02 % ID/g | Radioactivity distribution Heart [3, 9]: 0.35 ± 0.03 % ID/g | Radioactivity distribution Kidney [3, 9]: 0.62 ± 0.08 % ID/g | Radioactivity distribution Large intestine [3, 9]: 0.43 ± 0.19 % ID/g | Radioactivity distribution Liver [3, 9]: 0.70 ± 0.05 % ID/g | Radioactivity distribution Lung [3, 9]: 0.60 ± 0.03 % ID/g | Radioactivity distribution Muscle (lower limbs) [3, 9]: 0.12 ± 0.02 % ID/g | Radioactivity distribution Remaining whole body [3, 9]: 0.33 ± 0.02 % ID/g | Radioactivity distribution Small intestine [3, 9]: 1.85 ± 0.44 % ID/g | Radioactivity distribution Spleen [3, 9]: 5.27 ± 0.89 % ID/g | Radioactivity distribution Stomach [3, 9]: 4.35 ± 0.25 % ID/g | Radioactivity distribution Testis [3, 9]: 0.15 ± 0.01 % ID/g | Radioactivity distribution Thyroid gland [3, 9]: 19.76 ± 1.03 % ID/g | Radioactivity distribution Whole brain [3, 9]: 0.02 ± 0.00 % ID/g

From patent US10358434B2, “2-(3-pyridinyl)-1H-benzimidazole derivative compound and medicament containing same” (NIHON MEDI-PHYSICS CO., LTD., priority 2014, dated 2019)
